The record followed here is patent publication EP0184822A2, “Novel anilide derivatives of substituted arylacetic acids” (SUMITOMO PHARMACEUTICALS COMPANY, LIMITED, priority 1984, dated 1986).

Bounds are passed on as bounds.

The test deals with ddy-mice. The test can be described thus: Antihypoxic activity (survival time of mice under reduced pressure, 190 mmHg). The following applies: Mus musculus, ip, injected intraperitoneally usually 30 minutes before the test, desiccator at 190 mmHg, effective = mean survival time above 140 sec and p<0.05 vs control. The format is in vivo. Here is the method:
Six ddy-mice weighing 20 - 27 g were used. Test compound was dissolved in saline or suspended in 0.5 % carboxymethylcellulose and injected intraperitoneally usually 30 minutes before the test at a dosage of 0.1 ml per 10 g of the bodyweight. Two mice were placed in a desiccator, the inside pressure of which was lowered to 190 mmHg within 2 to 3 seconds, and the survival time as well as the time interval between the start of the evacuation and the cessation of respiration was determined. The survival time of the mice which lived longer than 300 seconds was taken as 300 sec.
For orientation: minimal effective dose means the lowest level tested that produced the effect sought. Lower therefore signals an effect from little substance. The compound `NC(=O)c1cccc(NC(=O)C(Cc2ccccc2)c2ccccc2)c1` (stereo not drawn) [Example 1, alpha-benzyl-N-(3-carbamoylphenyl)benzeneacetamide] came in with a minimal effective dose of less than 10 mg/kg.

In the case of `CCC(C(=O)Nc1ccc(O)cc1)c1ccccc1` (stereo not shown) [Known product (see page 2), reference compound], the minimal effective dose is more than 30 mg/kg.

Turning to `CN(C)CCCOC1(Cc2ccccc2)CCCCCC1` [Bencyclane, reference compound], the minimal effective dose was less than 30 mg/kg.

`Cc1ccc(C(CCc2ccccc2)C(=O)Nc2ccc(S(N)(=O)=O)cc2)cc1` (stereo not shown) [Example 40] gave a minimal effective dose of less than 10 mg/kg.

For `NC(=O)c1cccc(NC(=O)C(CCCc2ccccc2)c2ccccc2)c1` (stereo not shown) [Example 18], the minimal effective dose was less than 10 mg/kg.

For the compound `CC[C@]12CCCN3CCc4c(n(c5ccccc45)[C@@](O)(C(=O)OC)C1)[C@@H]32` [Vincamine, reference compound], the minimal effective dose was less than 30 mg/kg.

In the case of `O=C(Nc1cccc(O)c1)C(Cc1ccccc1)c1ccccc1` (stereo not shown) [Example 7], the minimal effective dose is less than 10 mg/kg.

In turn, `COc1ccc(Cc2nccc3cc(OC)c(OC)cc23)cc1OC` [Papaverine, reference compound] yielded a minimal effective dose of less than 30 mg/kg.

`O=C(Nc1cccc(O)c1)C(CCCc1ccccc1)c1ccccc1` (stereo not shown) [Example 23] displayed a minimal effective dose of less than 10 mg/kg.

Turning to `NS(=O)(=O)c1ccc(NC(=O)C(CCc2ccccc2)c2ccc(Cl)cc2)cc1` (stereo not shown) [Example 38], the minimal effective dose was less than 10 mg/kg.
